The test system of one assay is HUT cells. Nature of the assay: HUT cell inhibition assay (WST-1 cell viability). The assay is classed as cell-based. The settings on record: 72-96 h. How it is done: (§1) Cancer cell lines (U937 and HUT) growing in log phase were harvested and seeded at 1000-2000 cells/well (100 μl final volume) into 96-well tissue culture plates. Following 24 h of growth cells were treated with Compound. Plates were then re-incubated for a further 72-96 h before a WST-1 cell viability assay was conducted according to the suppliers (Roche Applied Science) instructions.
(§2) Data were expressed as a percentage inhibition of the control, measured in the absence of inhibitor, as follows: % inhibition=100−[(S^i/S^o)×100] where S^i is the signal in the presence of inhibitor and S^o is the signal in the presence of DMSO.
(§3) Dose response curves were generated from 8 concentrations (top final concentration 10 μM, with 3-fold dilutions), using 6 replicates.
(§4) IC50 values were determined by non-linear regression analysis, after fitting the results to the equation for sigmoidal dose response with variable slope (% activity against log concentration of Compound), using Graphpad Prism software.
Background: Tetrazolium dyes change colour on reduction, which living cells bring about.

The test system of another assay is HeLa cells. Description: HeLa cell inhibition assay (sulphorhodamine B cell viability). Format: cell-based. To be noted: 72 h, SRB. How it is done: HeLa cells growing in log phase were harvested and seeded at 1000 cells/well (200 μl final volume) into 96-well tissue culture plates. Following 24 h of cell growth cells were treated with Compounds (final concentration of 20 μM). Plates were then re-incubated for a further 72 h before a sulphorhodamine B (SRB) cell viability assay was conducted according to the methodology described by Skehan et al, J. Natl. Canc. Inst., 1990, 82, 1107-1112.
Data were expressed as a percentage inhibition of the control, measured in the absence of inhibitor, as follows:— % inhibition=100−[(S^i/S^o)×100] where S^i is the signal in the presence of inhibitor and S^o is the signal in the presence of DMSO.
(§5) IC50 values were determined by non-linear regression analysis, after fitting the results of eight data points to the equation for sigmoidal dose response with variable slope (% activity against log concentration of Compound), using Graphpad Prism software.

The next assay relates to U937 cells. Nature of the assay: U937 cell inhibition assay (WST-1 cell viability). The assay is classed as cell-based. Here is the method:
as §1, §2, §3, §4

Assay [1] concerns the target T1, histone deacetylase activity (HeLa nuclear extract).
T1 construct: Histone deacetylase activity from crude nuclear extract derived from HeLa cells was used for screening
Nature of the assay: Histone deacetylase activity (Biomol Fluor de Lys HDAC fluorescent activity assay). The assay is classed as biochemical. The settings on record: Fluor de Lys substrate. How it is done:
The ability of compounds to inhibit histone deacetylase activities was measured using the commercially available HDAC fluorescent activity assay from Biomol. In brief, the Fluor de Lys™ substrate, a lysine with an epsilon-amino acetylation, is incubated with the source of histone deacetylase activity (HeLa nuclear extract) in the presence or absence of inhibitor. Deacetylation of the substrate sensitises the substrate to Fluor de Lys™ developer, which generates a fluorophore. Thus, incubation of the substrate with a source of HDAC activity results in an increase in signal that is diminished in the presence of an HDAC inhibitor.
Data are expressed as a percentage of the control, measured in the absence of inhibitor, with background signal being subtracted from all samples, as follows: % activity=[(S^i−B)/(S^o−B)]×100 where S^i is the signal in the presence of substrate, enzyme and inhibitor, S^o is the signal in the presence of substrate, enzyme and the vehicle in which the inhibitor is dissolved, and B is the background signal measured in the absence of enzyme.
as §5
Histone deacetylase activity from crude nuclear extract derived from HeLa cells was used for screening. The preparation, purchased from 4C (Seneffe, Belgium), was prepared from HeLa cells harvested whilst in exponential growth phase. The nuclear extract was prepared according to the methodology described by J. D. Dignam, Nucl. Acid. Res., 1983, 11, 1475-1489, snap frozen in liquid nitrogen and stored at −80° C. The final buffer composition was 20 mM Hepes, 100 mM KCl, 0.2 mM EDTA, 0.5 mM DTT, 0.2 mM PMSF and 20% (v/v) glycerol.

The values that follow come from US8962825B2, “Hydroxamates as inhibitors of histone deacetylase” (GlaxoSmithKline Intellectual Property Development Limited, priority 2006, dated 2015).

Molecules are shown by their SMILES.

A word on the IC50: it is the midpoint of a concentration-inhibition curve. High values mean lower potency, low ones higher potency. On to `CC(C)C[C@H](NC1CCN(c2ncc(C(=O)NO)cn2)CC1)C(=O)OC1CCCC1` [Example 1, Cyclopentyl N-{1-[5-(hydroxycarbamoyl)pyrimidin-2-yl]piperidin-4-yl}-L-leucinate], for which the half-maximal inhibitory concentration (IC50) was 331 to 3300 nM in the assay on HUT cells; above 3300 nM in the assay on HeLa cells (Homo sapiens); below 330 nM in the assay on U937 cells (Homo sapiens, U-937, 72-96 h); 101 to 1000 nM in assay [1].

Consider `O=C(NO)c1cnc(N2CCC(NCc3ccc(CN[C@H](C(=O)OC4CCCC4)c4ccccc4)cc3)CC2)nc1` [Example 29], for which the IC50 with HUT cells is 331 to 3300 nM; in the assay with HeLa cells (Homo sapiens) it was 331 to 3300 nM; in the assay on U937 cells (Homo sapiens, U-937, 72-96 h), below 330 nM; in assay [1] it was below 100 nM.

`O=C(NO)c1cnc(N2CC3C(CNCc4ccc(CN[C@H](C(=O)OC5CCCC5)c5ccccc5)cc4)C3C2)nc1` (stereo partly drawn) [Example 35, Cyclopentyl (2S)-[(4-{[({3-[5-(hydroxycarbamoyl)pyrimidin-2-yl]-3-azabicyclo[3.1.0]hex-6-yl}methyl)amino]methyl}benzyl)amino](phenyl)acetate]: the half-maximal inhibitory concentration (IC50) is 331 to 3300 nM with HUT cells; 331 to 3300 nM in the assay on HeLa cells (Homo sapiens); 331 to 3300 nM in the assay with U937 cells (Homo sapiens, U-937, 72-96 h); below 100 nM in assay [1].

Regarding `O=C(NO)c1cnc(N2CCC(NCc3ccc(CN[C@H](C(=O)OC4CCCC4)c4ccccc4)cc3)CC2)nc1` [Example 31], the IC50 is 331 to 3300 nM in the assay on HUT cells, 331 to 3300 nM in the assay on HeLa cells, below 330 nM in the assay on U937 cells (72-96 h) and 101 to 1000 nM in assay [1].

As for `O=C(NO)c1cnc(N2CC3C(CN[C@H](C(=O)OC4CCCC4)C4CCCCC4)C3C2)nc1` (stereo partly drawn) [Example 14, Cyclopentyl (2S)-cyclohexyl[({3-[5-(hydroxycarbamoyl)pyrimidin-2-yl]-3-azabicyclo[3.1.0]hex-6-yl}methyl)amino]acetate], the IC50 is 331 to 3300 nM with HUT cells; 331 to 3300 nM in the assay with HeLa cells (Homo sapiens); 331 to 3300 nM with U937 cells (Homo sapiens, U-937, 72-96 h); below 100 nM in assay [1].

For `O=C(NO)c1cnc(N2CCC(CNCc3ccc(CN[C@H](C(=O)OC4CCCC4)C4CCCCC4)cc3)CC2)nc1` [Example 38, Cyclopentyl (2S)-cyclohexyl[(4-{[({1-[5-(hydroxycarbamoyl)pyrimidin-2-yl]piperidin-4-yl}methyl)amino]methyl}benzyl)amino]acetate], the half-maximal inhibitory concentration (IC50) is 331 to 3300 nM in the assay on HUT cells; below 330 nM in the assay on HeLa cells (Homo sapiens); below 330 nM in the assay with U937 cells (Homo sapiens, U-937, 72-96 h); below 100 nM in assay [1].

As for `CC(C)C[C@H](NCc1ccc(CNC2CCN(c3ncc(C(=O)NO)cn3)CC2)cc1)C(=O)OC1CCCC1` [Example 27, Cyclopentyl N-{4-[({1-[5-(hydroxycarbamoyl)pyrimidin-2-yl]piperidin-4-yl}amino)methyl]benzyl}-L-leucinate], the concentration for half-maximal inhibition (IC50) is below 330 nM with HUT cells; 331 to 3300 nM in the assay on HeLa cells (Homo sapiens); below 330 nM with U937 cells (Homo sapiens, U-937, 72-96 h); below 100 nM in assay [1].

As to `O=C(NO)c1cnc(N2CCC(NCc3ccc(CN[C@H](C(=O)OC4CCCC4)c4ccccc4)cc3)CC2)nc1` [Example 33], the half-inhibitory concentration (IC50) with HUT cells is below 330 nM; in the assay with HeLa cells, 331 to 3300 nM; in the assay with U937 cells (72-96 h), below 330 nM; in assay [1], below 100 nM.

Regarding `O=C(NO)c1cnc(N2CCC(CN[C@H](C(=O)OC3CCCC3)C3CCCCC3)CC2)nc1` [Example 18, Cyclopentyl (2S)-cyclohexyl[({1-[5-(hydroxycarbamoyl)pyrimidin-2-yl]piperidin-4-yl}methyl)amino]acetate], the half-maximal inhibitory concentration (IC50) in the assay with HUT cells is 331 to 3300 nM; in the assay with HeLa cells (Homo sapiens) it was 331 to 3300 nM; with U937 cells (Homo sapiens, U-937, 72-96 h), below 330 nM; in assay [1], below 100 nM.
